Data published in article PMC9090415, “Discovery of small molecule inhibitors of Plasmodium falciparum apicoplast DNA polymerase” (Journal of Enzyme Inhibition and Medicinal Chemistry, 2022).

Target: P. falciparum apicoplast DNA polymerase (Pf-apPOL) (Plasmodium falciparum, UniProt Q8ILY1)
Test: Fluorescence-based high-throughput DNA polymerase assay (molecular beacon), primary screen and dose-response
Format: biochemical
Details: for IC50: supplemental file 2, sheet IC50 nontoxic compounds, Pf-apPOL; for DNA Pol: 90 min, 10 µM
How it was run: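 Single-point screening used 10 µM compound with 20 nM polymerase, 20 nM hairpin substrate and 6 µM dNTPs for 90 min at 25 °C. Confirmatory titrations (2.5–80 µM) followed fluorescence at three times, and IC50 was derived from a fit including a cooperativity term n.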

P. falciparum apicoplast DNA polymerase (Pf-apPOL), sequence (Q8ILY1 entry or part of it): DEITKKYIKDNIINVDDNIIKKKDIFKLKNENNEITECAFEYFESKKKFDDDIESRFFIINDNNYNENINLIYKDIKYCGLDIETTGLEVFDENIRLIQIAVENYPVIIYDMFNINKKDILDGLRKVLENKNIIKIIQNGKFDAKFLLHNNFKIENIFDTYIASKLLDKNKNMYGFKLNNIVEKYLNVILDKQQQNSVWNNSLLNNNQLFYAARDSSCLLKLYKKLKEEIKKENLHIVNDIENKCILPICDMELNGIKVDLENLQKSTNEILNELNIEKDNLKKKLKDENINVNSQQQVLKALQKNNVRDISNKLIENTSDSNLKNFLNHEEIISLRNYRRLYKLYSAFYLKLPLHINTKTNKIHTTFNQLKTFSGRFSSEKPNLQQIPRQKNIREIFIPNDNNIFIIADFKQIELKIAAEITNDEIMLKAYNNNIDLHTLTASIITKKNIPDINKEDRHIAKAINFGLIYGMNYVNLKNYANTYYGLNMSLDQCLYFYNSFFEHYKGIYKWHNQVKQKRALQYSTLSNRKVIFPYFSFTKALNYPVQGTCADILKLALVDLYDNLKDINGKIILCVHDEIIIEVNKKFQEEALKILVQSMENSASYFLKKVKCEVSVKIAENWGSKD

Cc1cc(C)c2c(O)nc(SCC(=O)c3ccc(O)c(O)c3)nc2n1 [Molecule 88]
IC50: < 2.5 µM

O=C(CSc1nnc(-c2ccncc2)[nH]1)c1ccc(O)c(O)c1 [Molecule 89, O=C(c1ccc(c(c1)O)O)CSc1nnc([nH]1)c1ccncc1]
% inhibition Apo pol 10' (DRC-1, concentration 2.5): 60.0938% | % inhibition Apo pol 10' (DRC-1, concentration 5): 82.0224% | % inhibition Apo pol 10' (DRC-1, concentration 10): 88.031% | % inhibition Apo pol 10' (DRC-1, concentration 20): 91.1846% | % inhibition Apo pol 10' (DRC-1, concentration 40): 93.0486% | % inhibition Apo pol 10' (DRC-1, concentration 80): 94.9385% | % inhibition Apol 90' (DRC-1, concentration 2.5): 43.8309% | % inhibition Apol 90' (DRC-1, concentration 5): 70.0142% | % inhibition Apol 90' (DRC-1, concentration 10): 80.3522% | % inhibition Apol 90' (DRC-1, concentration 20): 84.6554% | % inhibition Apol 90' (DRC-1, concentration 40): 86.229% | % inhibition Apol 90' (DRC-1, concentration 80): 90.5693% | % inhibition apPOL 180' (DRC-1, concentration 2.5): 29.303% | % inhibition apPOL 180' (DRC-1, concentration 5): 56.5831% | % inhibition apPOL 180' (DRC-1, concentration 10): 70.7438% | % inhibition apPOL 180' (DRC-1, concentration 20): 76.8269% | % inhibition apPOL 180' (DRC-1, concentration 40): 78.119% | % inhibition apPOL 180' (DRC-1, concentration 80): 84.9374% | % inhibition Apo pol 5' (DRC-2, concentration 2.5): 47% | % inhibition Apo pol 5' (DRC-2, concentration 5): 49% | % inhibition Apo pol 5' (DRC-2, concentration 10): 52% | % inhibition Apo pol 5' (DRC-2, concentration 20): 53% | % inhibition Apo pol 5' (DRC-2, concentration 40): 57% | % inhibition Apo pol 5' (DRC-2, concentration 80): 58% | % inhibition Apol 40' (DRC-2, concentration 2.5): 53% | % inhibition Apol 40' (DRC-2, concentration 5): 62% | % inhibition Apol 40' (DRC-2, concentration 10): 68% | % inhibition Apol 40' (DRC-2, concentration 20): 71% | % inhibition Apol 40' (DRC-2, concentration 40): 76% | % inhibition Apol 40' (DRC-2, concentration 80): 78% | % inhibition ApPOL 90' (DRC-2, concentration 2.5): 50% | % inhibition ApPOL 90' (DRC-2, concentration 5): 62% | % inhibition ApPOL 90' (DRC-2, concentration 10): 69% | % inhibition ApPOL 90' (DRC-2, concentration 20): 73% | % inhibition ApPOL 90' (DRC-2, concentration 40): 78% | % inhibition ApPOL 90' (DRC-2, concentration 80): 80% | % inhibition apPOL 180' (DRC-2, concentration 2.5): 34% | % inhibition apPOL 180' (DRC-2, concentration 5): 53% | % inhibition apPOL 180' (DRC-2, concentration 10): 63% | % inhibition apPOL 180' (DRC-2, concentration 20): 68% | % inhibition apPOL 180' (DRC-2, concentration 40): 76% | % inhibition apPOL 180' (DRC-2, concentration 80): 80% | % inhibition Apol 40' (conc. 2.5, DRC-2): 53% | % inhibition Apol 40' (conc. 5, DRC-2): 62% | % inhibition ApPOL 90' (conc. 5, DRC-2): 62% | % inhibition apPOL 180' (conc. 5, DRC-2): 53% | % inhibition Apol 40' (conc. 10, DRC-2): 68% | % inhibition Apo pol 5' (conc. 20, DRC-2): 53% | % inhibition apPOL 180' (conc. 20, DRC-2): 68% | % inhibition Apol 40' (conc. 40, DRC-2): 76% | % inhibition ApPOL 90' (conc. 40, DRC-2): 78% | % inhibition apPOL 180' (conc. 40, DRC-2): 76% | % inhibition Apol 40' (conc. 80, DRC-2): 78% | % inhibition ApPOL 90' (conc. 80, DRC-2): 80% | % inhibition apPOL 180' (conc. 80, DRC-2): 80% | DNA Pol (primary screen value by plate and well): 90 | DNA Pol (primary screen value of the 186 hits, unit not given): 90

O=C(CSc1nnc(-c2ccncc2)[nH]1)c1ccc(O)c(O)c1 [Molecule 89]
IC50: < 2.5 µM
